In ChEMBL document CHEMBL1140860, “Synthesis and evaluation of dihydroartemisinin and dihydroartemisitene acetal dimers showing anticancer and antiprotozoal activity” (Bioorg Med Chem, 2009):

Columns and labels:
[1] = Cytotoxicity against african green monkey Vero cells after 48 hrs by neutral red assay; type: cell-based; conditions: chlorocebus sabaeus, read-out: TC50
K562 = test: Growth inhibition of human K562 cells after 48 hrs by sulforhodamine B assay; type: functional; conditions: K562, 48 h
SR = test: Growth inhibition of human SR cells after 48 hrs by sulforhodamine B assay; type: functional
T47D = test: Growth inhibition of human T47D cells after 48 hrs by sulforhodamine B assay; type: functional
BT-549 = test: Growth inhibition of human BT549 cells after 48 hrs by sulforhodamine B assay; type: functional; conditions: BT-549, 48 h
ACHN = test: Growth inhibition of human ACHN cells after 48 hrs by sulforhodamine B assay; type: functional
HCC 2998 = test: Growth inhibition of human HCC2998 cells after 48 hrs by sulforhodamine B assay; type: functional; conditions: HCC 2998, 48 h
IGROV-1 = test: Growth inhibition of human IGROV1 cells after 48 hrs by sulforhodamine B assay; type: functional; conditions: IGROV-1, 48 h
RXF 393 = test: Growth inhibition of human RXF393 cells after 48 hrs by sulforhodamine B assay; type: functional; conditions: RXF 393, 48 h
HT-29 = test: Growth inhibition of human HT-29 cells after 48 hrs by sulforhodamine B assay; type: functional; conditions: HT-29, 48 h
SF-539 = test: Growth inhibition of human SF539 cells after 48 hrs by sulforhodamine B assay; type: functional; conditions: SF-539, 48 h
SF-268 = test: Growth inhibition of human SF268 cells after 48 hrs by sulforhodamine B assay; type: functional; conditions: SF-268, 48 h
COLO 205 = test: Growth inhibition of human COLO205 cells after 48 hrs by sulforhodamine B assay; type: functional; conditions: COLO 205, 48 h
OVCAR-8 = test: Growth inhibition of human OVCAR8 cells after 48 hrs by sulforhodamine B assay; type: functional; conditions: OVCAR-8, 48 h
HCT-116 = test: Growth inhibition of human HCT116 cells after 48 hrs by sulforhodamine B assay; type: functional; conditions: HCT-116, 48 h
NCI-H460 = test: Growth inhibition of human NCI-H460 cells after 48 hrs by sulforhodamine B assay; type: functional; conditions: NCI-H460, 48 h
Plasmodium falciparum [2] = test: Antimalarial activity after 72 hrs against chloroquine-resistant Plasmodium falciparum W2 infected erythrocytes by LDH assay; type: functional, organism-based; conditions: W2, 72 h
SF-295 = test: Growth inhibition of human SF295 cells after 48 hrs by sulforhodamine B assay; type: functional; conditions: SF-295, 48 h
DU-145 = test: Growth inhibition of human DU145 cells after 48 hrs by sulforhodamine B assay; type: functional; conditions: DU-145, 48 h
PC-3 = test: Growth inhibition of human PC3 cells after 48 hrs by sulforhodamine B assay; type: functional; conditions: PC-3, 48 h
[3] = Growth inhibition of human Hs 578T cells after 48 hrs by sulforhodamine B assay; type: functional
[4] = Selectivity index, ratio of TC50 for african green monkey (Cercopithecus aethiops) Vero cells to IC50 for chloroquine-sensitive Plasmodium falciparum D6; type: toxicity, cell-based
Plasmodium falciparum [5] = test: Antimalarial activity after 72 hrs against chloroquine-sensitive Plasmodium falciparum D6 infected in erythrocytes by LDH assay; type: functional, organism-based; conditions: D6, 72 h
OVCAR-3 = test: Growth inhibition of human OVCAR-3 cells after 48 hrs by sulforhodamine B assay; type: functional; conditions: OVCAR-3, 48 h
UACC-62 = test: Growth inhibition of human UACC62 cells after 48 hrs by sulforhodamine B assay; type: functional; conditions: UACC-62, 48 h
NCI-H522 = test: Growth inhibition of human NCI-H522 cells after 48 hrs by sulforhodamine B assay; type: functional; conditions: NCI-H522, 48 h
A549 = test: Growth inhibition of human A549 cells after 48 hrs by sulforhodamine B assay; type: functional; conditions: A549, 48 h
SNB-75 = test: Growth inhibition of human SNB75 cells after 48 hrs by sulforhodamine B assay; type: functional; conditions: SNB-75, 48 h
NCI-H322M = test: Growth inhibition of human NCI-H322M cells after 48 hrs by sulforhodamine B assay; type: functional
MDA-MB-435 = test: Growth inhibition of human MDA-MB-435 cells after 48 hrs by sulforhodamine B assay; type: functional; conditions: MDA-MB-435, 48 h
SK-OV-3 = test: Growth inhibition of human SKOV3 cells after 48 hrs by sulforhodamine B assay; type: functional; conditions: SK-OV-3, 48 h
MDA-N = test: Growth inhibition of human MDA-N cells after 48 hrs by sulforhodamine B assay; type: functional
UACC-257 = test: Growth inhibition of human UACC257 cells after 48 hrs by sulforhodamine B assay; type: functional; conditions: UACC-257, 48 h
SK-MEL-2 = test: Growth inhibition of human SK-MEL-2 cells after 48 hrs by sulforhodamine B assay; type: functional; conditions: SK-MEL-2, 48 h
MCF7 = test: Growth inhibition of human MCF7 cells after 48 hrs by sulforhodamine B assay; type: functional; conditions: MCF7, 48 h
CAKI-1 = test: Growth inhibition of human Caki1 cells after 48 hrs by sulforhodamine B assay; type: functional; conditions: CAKI-1, 48 h
OVCAR-5 = test: Growth inhibition of human OVCAR5 cells after 48 hrs by sulforhodamine B assay; type: functional; conditions: OVCAR-5, 48 h
CCRF-CEM = test: Growth inhibition of human CCRF-CEM cells after 48 hrs by sulforhodamine B assay; type: functional
786-0 = test: Growth inhibition of human 786-0 cells after 48 hrs by sulforhodamine B assay; type: functional; conditions: 786-0, 48 h
HOP-62 = test: Growth inhibition of human HOP62 cells after 48 hrs by sulforhodamine B assay; type: functional; conditions: HOP-62, 48 h
M14 = test: Growth inhibition of human M14 cells after 48 hrs by sulforhodamine B assay; type: functional; conditions: M14, 48 h
A498 = test: Growth inhibition of human A498 cells after 48 hrs by sulforhodamine B assay; type: functional; conditions: A498, 48 h
KM12 = test: Growth inhibition of human KM12 cells after 48 hrs by sulforhodamine B assay; type: functional; conditions: KM12, 48 h
NCI-H23 = test: Growth inhibition of human NCI-H23 cells after 48 hrs by sulforhodamine B assay; type: functional; conditions: NCI-H23, 48 h
Malme-3M = test: Growth inhibition of human MALME-3M cells after 48 hrs by sulforhodamine B assay; type: functional
UO-31 = test: Growth inhibition of human UO31 cells after 48 hrs by sulforhodamine B assay; type: functional; conditions: UO-31, 48 h
TK-10 = test: Growth inhibition of human TK10 cells after 48 hrs by sulforhodamine B assay; type: functional; conditions: TK-10, 48 h
NCI-H226 = test: Growth inhibition of human NCI-H226 cells after 48 hrs by sulforhodamine B assay; type: functional; conditions: NCI-H226, 48 h
OVCAR-4 = test: Growth inhibition of human OVCAR4 cells after 48 hrs by sulforhodamine B assay; type: functional; conditions: OVCAR-4, 48 h
HOP-92 = test: Growth inhibition of human HOP92 cells after 48 hrs by sulforhodamine B assay; type: functional; conditions: HOP-92, 48 h

`C[C@H]1[C@@H](O[C@H]2CC[C@H](O[C@H]3O[C@@H]4O[C@@]5(C)CC[C@H]6[C@H](C)CC[C@@H]([C@H]3C)[C@@]46OO5)CC2)O[C@@H]2O[C@@]3(C)CC[C@H]4[C@H](C)CC[C@@H]1[C@@]24OO3` gave a CC50 at 48 h [1] greater than 7340 µM, a GI50 (K562) of 0.041 µM and a GI50 (SR) of 0.306 µM. The GI50 (T47D) was less than 0.01 µM, the GI50 (BT-549) was 0.021 µM and the GI50 (ACHN) was 0.042 µM. The GI50 (HCC 2998) was 0.018 µM, the GI50 (IGROV-1) was 0.055 µM and the GI50 (RXF 393) was 0.294 µM. For the same compound, the GI50 (HT-29) was 0.011 µM, the GI50 (SF-539) was 0.092 µM and the GI50 (SF-268) was 0.108 µM. For the same compound, the GI50 (COLO 205) was less than 0.01 µM, the GI50 (OVCAR-8) was 0.057 µM and the GI50 (HCT-116) was less than 0.01 µM. For the same compound, the GI50 (NCI-H460) was 0.028 µM, the IC50 (Plasmodium falciparum [2]) was 13.3 µM and the GI50 (SF-295) was 0.061 µM. It also gave a GI50 (DU-145) of 0.34 µM, a GI50 (PC-3) of less than 0.01 µM and a GI50 [3] of 0.063 µM. For the same compound, the selectivity ratio [4] was 1360, the IC50 (Plasmodium falciparum [5]) was 5.4 µM and the GI50 (OVCAR-3) was 0.067 µM. For the same compound, the GI50 (UACC-62) was 0.045 µM, the GI50 (NCI-H522) was 0.036 µM and the GI50 (A549) was 0.0188 µM. The GI50 (SNB-75) was 0.202 µM, the GI50 (NCI-H322M) was 0.672 µM and the GI50 (MDA-MB-435) was 0.07 µM. It also gave a GI50 (SK-OV-3) of 0.166 µM, a GI50 (MDA-N) of 0.077 µM and a GI50 (UACC-257) of 0.074 µM. The GI50 (SK-MEL-2) was 0.296 µM, the GI50 (MCF7) was 0.042 µM and the GI50 (CAKI-1) was 0.326 µM. It also gave a GI50 (OVCAR-5) of 0.042 µM, a GI50 (CCRF-CEM) of less than 0.01 µM and a GI50 (786-0) of 0.027 µM. The GI50 (HOP-62) was 0.065 µM, the GI50 (M14) was 0.061 µM and the GI50 (A498) was 0.376 µM. For the same compound, the GI50 (KM12) was 0.011 µM, the GI50 (NCI-H23) was 0.043 µM and the GI50 (Malme-3M) was 0.071 µM. It also gave a GI50 (UO-31) of 0.123 µM, a GI50 (TK-10) of 0.119 µM and a GI50 (NCI-H226) of 0.025 µM. For the same compound, the GI50 (OVCAR-4) was 0.053 µM and the GI50 (HOP-92) was 0.021 µM.
